Source: patent publication US9511073B2, “Aromatic amides and uses thereof” (TAXIS Pharmaceuticals, Inc., priority 2011, dated 2016)
Converted amounts (≈) assume the structure as drawn. Where two headings read alike, the source gives them in different places.

Assays:
[1] = Pharmacokinetic assay: plasma concentration by LC/MS/MS after single intravenous or peroral dose of 3 mg/kg; type: in vivo; details: 3 mg/kg IV dosing in mice
Procedure: The pharmacokinetic profiles of selected comparator compounds A-N in Table 6 and compounds of the invention were determined by measuring the compound concentration in plasma by LC/MS/MS following a single intravenous or peroral administration of the compounds at a dose of 3 mg/kg. The concentrations described are the mean plasma concentrations at each time point from three animals. Intravenous dose formulation was administered as a single bolus dose through the tail vein. Oral dose formulation was administered to animals by an oral gavage needle. In both cases the dose volume was 5.0 mL/kg. Blood was collected from anesthetized mice through a capillary guided into the retro-orbital plexus. The collected blood was centrifuged to obtain plasma and the compounds extracted into methanol prior to determining the compound concentration by LC/MS/MS. The results are shown graphically in FIG. 1 and for the AUC and CL parameters in Table 6.

[2] = system: Staphylococcus aureus (Isolate ID ATCC 29213); experiment: Bacterial assay: MIC by broth microdilution or agar dilution (CLSI), S. aureus ATCC 29213; type: cell-based; details: Staphylococcus aureus, ATCC29213, read-out: S. aureus MIC (μg/mL) Activity Range, S. aureus (ATCC29213)
Procedure, shortened: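 MICs by CLSI broth microdilution or agar dilution against S. aureus ATCC 29213 and its FtsZ-G196A mutant. Values reported as ranges: A ≤0.25 μg/mL, B >0.25–1.0, C >1.0–16, D >16 μg/mL.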

clearance ([1]; mouse, plasma) | AUC ([1]; mouse, plasma, read-out: AUC) | Compound | MIC [2] | also measured
– | – | CCOc1cnc2sc(COc3ccc(F)c(C(N)=O)c3F)nc2c1 [E] | – | AUC [1]: 200 ng·h/mL; CL [1]: 203 mL/min/kg
82 mL/min/kg | 600 ng·h/mL | COc1cnc(-c2csc(COc3ccc(F)c(C(N)=O)c3F)n2)cn1 [G, 2,6-difluoro-3-((4-(5-methoxypyrazin-2-yl)thiazol-2-yl)methoxy)benzamide] | – | –
52 mL/min/kg | 900 ng·h/mL | NC(=O)c1c(F)ccc(OCc2nc(-c3ccc(Cl)cc3)no2)c1F [Compound A, 3-((3-(4-chlorophenyl)-1,2,4-oxadiazol-5-yl)methoxy)-2,6-difluorobenzamide] | – | –
139 mL/min/kg | 400 ng·h/mL | NC(=O)c1c(F)ccc(OCc2nc(-c3ccc(Cl)nc3)cs2)c1F [Compound F, 3-((4-(6-chloropyridin-3-yl)thiazol-2-yl)methoxy)-2,6-difluorobenzamide] | – | –
173 mL/min/kg | 300 ng·h/mL | NC(=O)c1c(F)ccc(OCc2nc(-c3cnc(Cl)nc3)cs2)c1F [H, 3-((4-(2-chloropyrimidin-5-yl)thiazol-2-yl)methoxy)-2,6-difluorobenzamide] | – | –
270 mL/min/kg | 200 ng·h/mL | C=CCc1oc(COc2ccc(F)c(C(N)=O)c2F)nc1-c1cccc(O)c1 [Compound N, 3-((5-allyl-4-(3-hydroxyphenyl)oxazol-2-yl)methoxy)-2,6-difluorobenzamide] | – | –
369 mL/min/kg | 100 ng·h/mL | CCCc1oc(COc2ccc(F)c(C(N)=O)c2F)nc1-c1cccc(O)c1 [Compound M, 2,6-difluoro-3-((4-(3-hydroxyphenyl)-5-propyloxazol-2-yl)methoxy)benzamide] | – | –
130 mL/min/kg | 400 ng·h/mL | Cc1ccc(-c2csc(COc3ccc(F)c(C(N)=O)c3F)n2)cn1 [Compound C, 2,6-difluoro-3-((4-(6-methylpyridin-3-yl)thiazol-2-yl)methoxy)benzamide] | – | –
59 mL/min/kg | 800 ng·h/mL | Cc1noc(CCc2csc(COc3ccc(F)c(C(N)=O)c3F)n2)n1 [L, 2,6-difluoro-3-((4-(2-(3-methyl-1,2,4-oxadiazol-5-yl)ethyl)thiazol-2-yl)methoxy)benzamide] | – | –
180 mL/min/kg | 300 ng·h/mL | COc1ncc(-c2csc(COc3ccc(F)c(C(N)=O)c3F)n2)s1 [J, 2,6-difluoro-3-((2′-methoxy-4,5′-bithiazol-2-yl)methoxy)benzamide] | – | –
– | – | NC(=O)c1c(F)ccc(O[C@H](CO)c2nc(-c3ccc4c(c3)CCO4)c(Br)o2)c1F [Compound 253B, (R)-3-(1-(5-bromo-4-(2,3-dihydrobenzofuran-5-yl)oxazol-2-yl)-2-hydroxyethoxy)-2,6-difluorobenzamide] | 1 to 16 µg/mL (≈ 2.08 to 33.2 µM) | –
– | – | CC(Oc1ccc(F)c(C(N)=O)c1F)c1nc(-c2ccc(Cl)cc2)ns1 (stereo not shown) [Compound 33, 3-(1-(3-(4-chlorophenyl)-1,2,4-thiadiazol-5-yl)ethoxy)-2,6-difluorobenzamide] | < 0.25 µg/mL | –
– | – | NC(=O)c1c(F)ccc(OC(COC(=O)NCCN2CCCC2)c2nc(-c3ccc(C(F)(F)F)cc3)c(Br)o2)c1F (stereo not shown) [Compound 161, 2-(5-bromo-4-(4-(trifluoromethyl)phenyl)oxazol-2-yl)-2-(3-carbamoyl-2,4-difluorophenoxy)ethyl (2-(pyrrolidin-1-yl)ethyl)carbamate] | 1 to 16 µg/mL (≈ 1.54 to 24.7 µM) | –
– | – | NC(=O)c1c(F)ccc(OC(CO)c2nc(C3CCOCC3)c(Br)o2)c1F (stereo not shown) [Compound 187, 3-(1-(5-bromo-4-(tetrahydro-2H-pyran-4-yl)oxazol-2-yl)-2-hydroxyethoxy)-2,6-difluorobenzamide] | > 16 µg/mL | –
– | – | CNC(=O)OCC(Oc1ccc(F)c(C(N)=O)c1F)c1nc(-c2ccc(C(F)(F)F)cc2)c(Br)o1 (stereo not shown) [Compound 113, 2-(5-bromo-4-(4-(trifluoromethyl)phenyl)oxazol-2-yl)-2-(3-carbamoyl-2,4-difluorophenoxy)ethyl methylcarbamate] | 0.25 to 1 µg/mL (≈ 0.443 to 1.77 µM) | –
– | – | NC(=O)c1c(F)ccc(OC(COC(=O)NCCC(=O)O)c2nc(-c3ccc(C(F)(F)F)cc3)c(Br)o2)c1F (stereo not shown) [Compound 143, 3-(((2-(5-bromo-4-(4-(trifluoromethyl)phenyl)oxazol-2-yl)-2-(3-carbamoyl-2,4-difluorophenoxy)ethoxy)carbonyl)amino)propanoic acid] | 1 to 16 µg/mL (≈ 1.61 to 25.7 µM) | –
– | – | NC(=O)c1c(F)ccc(O[C@H](COCCO)c2nc(-c3ccc(F)cc3F)c(Br)o2)c1F [Compound 265B, (R)-3-(1-(5-bromo-4-(2,4-difluorophenyl)oxazol-2-yl)-2-(2-hydroxyethoxy)ethoxy)-2,6-difluorobenzamide] | 1 to 16 µg/mL (≈ 1.93 to 30.8 µM) | –
– | – | NC(=O)c1c(F)ccc(OC(Cn2ccnc2)c2nc(-c3ccc(C(F)(F)F)cc3)c(Br)o2)c1F (stereo not shown) [Compound 114, 3-(1-(5-bromo-4-(4-(trifluoromethyl)phenyl)oxazol-2-yl)-2-(1H-imidazol-1-yl)ethoxy)-2,6-difluorobenzamide] | 1 to 16 µg/mL (≈ 1.79 to 28.7 µM) | –
– | – | Cn1ccc(CNC(=O)OCC(Oc2ccc(F)c(C(N)=O)c2F)c2nc(-c3ccc(C(F)(F)F)cc3)c(Br)o2)n1 (stereo not shown) [Compound 193, 2-(5-bromo-4-(4-(trifluoromethyl)phenyl)oxazol-2-yl)-2-(3-carbamoyl-2,4-difluorophenoxy)ethyl ((1-methyl-1H-pyrazol-3-yl)methyl)carbamate] | < 0.25 µg/mL | –
– | – | CC(=O)OCC(Oc1ccc(F)c(C(N)=O)c1F)c1nc(-c2ccc(Cl)cc2)c(Cl)o1 (stereo not shown) [Compound 46, 2-(3-carbamoyl-2,4-difluorophenoxy)-2-(5-chloro-4-(4-chlorophenyl)oxazol-2-yl)ethyl acetate] | 0.25 to 1 µg/mL | –
– | – | NC(=O)c1c(F)ccc(OC(COC2CCCCO2)c2nc(-c3ccc(C(F)(F)F)cc3)c(Br)o2)c1F (stereo not shown) [Compound 105, 3-(1-(5-bromo-4-(4-(trifluoromethyl)phenyl)oxazol-2-yl)-2-((tetrahydro-2H-pyran-2-yl)oxy)ethoxy)-2,6-difluorobenzamide] | 0.25 to 1 µg/mL (≈ 0.423 to 1.69 µM) | –
– | – | NC(=O)c1c(F)ccc(O[C@H](CO)c2nc(-c3cncs3)c(Br)o2)c1F [Compound 247B, (R)-3-(1-(5-bromo-4-(thiazol-5-yl)oxazol-2-yl)-2-hydroxyethoxy)-2,6-difluorobenzamide] | > 16 µg/mL | –
– | – | NC(=O)c1c(F)ccc(O[C@H](CO)c2nc(-c3ccc(OC(F)F)cc3)co2)c1F [Compound 274B, (R)-3-(1-(4-(4-(difluoromethoxy)phenyl)oxazol-2-yl)-2-hydroxyethoxy)-2,6-difluorobenzamide] | 1 to 16 µg/mL (≈ 2.35 to 37.5 µM) | –
– | – | CCc1oc(-c2ccc(OC)cc2)nc1C(CO)Oc1ccc(F)c(C(N)=O)c1F (stereo not shown) [Compound 306, 3-(1-(5-ethyl-2-(4-methoxyphenyl)oxazol-4-yl)-2-hydroxyethoxy)-2,6-difluorobenzamide] | 1 to 16 µg/mL (≈ 2.39 to 38.2 µM) | –
– | – | COc1ccc(-c2coc([C@H](C)Oc3ccc(F)c(C(N)=O)c3F)n2)cc1 [Compound 268A, (S)-2,6-difluoro-3-(1-(4-(4-methoxyphenyl)oxazol-2-yl)ethoxy)benzamide] | > 16 µg/mL | –
– | – | COCCNC(=O)OCC(Oc1ccc(F)c(C(N)=O)c1F)c1nc(-c2ccc(C(F)(F)F)cc2)c(Br)o1 (stereo not shown) [Compound 164, 2-(5-bromo-4-(4-(trifluoromethyl)phenyl)oxazol-2-yl)-2-(3-carbamoyl-2,4-difluorophenoxy)ethyl (2-methoxyethyl)carbamate] | 0.25 to 1 µg/mL (≈ 0.411 to 1.64 µM) | –
– | – | NC(=O)c1c(F)ccc(OC(CO)c2scc(-c3ccc(Cl)cc3)[n+]2[O-])c1F (stereo not shown) [Compound 267, 2-(1-(3-carbamoyl-2,4-difluorophenoxy)-2-hydroxyethyl)-4-(4-chlorophenyl)thiazole 3-oxide] | > 16 µg/mL | –
